Assay results from US11117892B2, “Pyrrolo-pyridine derivative compound, method for preparing same, and pharmaceutical composition containing same as active ingredient for prevention or treatment of protein kinase-related diseases” (DAEGU-GYEONGBUK MEDICAL INNOVATION FOUNDATION, priority 2017, dated 2021).

What was measured:
Experiment in all cases: scanMAX Kinase assay panel
Type in all cases: binding
GRK7 = GRK7 (Homo sapiens (Human), UniProt Q8WTQ7); conditions: read-out: % control
Experimental: (§1) DiscoverX Co. was asked to measure the enzyme (kinase) selectivity, and the experiment was performed using scanMAX™ Kinase assay panel.
(§2) (Example Compound−Positive Control)/(Negative Control−Positive Control)×100 [Equation 1]
(§3) Herein, the positive control indicates the compound showing the % control of 0%, and the negative control indicates DMSO showing the % control of 100%.

EGFR = EGFR (Homo sapiens (Human), UniProt P00533); conditions: read-out: % control
Experimental: as §1, §2, §3

BMPR1A = BMPR1A (Homo sapiens (Human), UniProt P36894); conditions: read-out: % control
Experimental: as §1, §2, §3

FGFR1 = FGFR1 (Homo sapiens (Human), UniProt P11362); conditions: read-out: % control
Experimental: as §1, §2, §3

EGFR(G719S) = EGFR(G719S) (Homo sapiens (Human), UniProt P00533, G719S); conditions: read-out: % control
Experimental: as §1, §2, §3

EGFR(E746-A750del) = EGFR(E746-A750del) (Homo sapiens (Human), UniProt P00533, DEL746-750); conditions: read-out: % control
Experimental: as §1, §2, §3

EPHA5 = EPHA5 (Homo sapiens (Human), UniProt P54756); conditions: read-out: % control
Experimental: as §1, §2, §3

PLK3 = PLK3 (Homo sapiens (Human), UniProt Q9H4B4); conditions: read-out: % control
Experimental: as §1, §2, §3

DDR2 = DDR2 (Homo sapiens (Human), UniProt Q16832); conditions: read-out: % control
Experimental: as §1, §2, §3

PRKCQ = PRKCQ (Homo sapiens (Human), UniProt Q04759); conditions: read-out: % control
Experimental: as §1, §2, §3

[1] = target: RSK2(Kin.Dom.1-N-terminal) (Homo sapiens (Human), UniProt P51812); conditions: read-out: % control
Experimental: as §1, §2, §3

FLT3(ITD) = conditions: 1 uM
Experimental: as §1, §2, §3

EPHB3 = EPHB3 (Homo sapiens (Human), UniProt P54753); conditions: read-out: % control
Experimental: as §1, §2, §3

RET(M918T) = RET(M918T) (Homo sapiens (Human), UniProt P07949, M918T); conditions: read-out: % control
Experimental: as §1, §2, §3

IKK-epsilon = IKK-epsilon (Homo sapiens (Human), UniProt Q14164); conditions: read-out: % control
Experimental: as §1, §2, §3

PLK2 = PLK2 (Homo sapiens (Human), UniProt Q9NYY3); conditions: read-out: % control
Experimental: as §1, §2, §3

p38-alpha = p38-alpha (Homo sapiens (Human), UniProt Q16539); conditions: read-out: % control
Experimental: as §1, §2, §3

GRK3 = GRK3 (Homo sapiens (Human), UniProt P35626); conditions: read-out: % control
Experimental: as §1, §2, §3

MERTK = MERTK (Homo sapiens (Human), UniProt Q12866); conditions: read-out: % control
Experimental: as §1, §2, §3

PDPK1 = PDPK1 (Homo sapiens (Human), UniProt O15530); conditions: read-out: % control
Experimental: as §1, §2, §3

MST2 = MST2 (Homo sapiens (Human), UniProt Q13188); conditions: read-out: % control
Experimental: as §1, §2, §3

PCTK2 = PCTK2 (Homo sapiens (Human), UniProt Q00537); conditions: read-out: % control
Experimental: as §1, §2, §3

PHKG1 = PHKG1 (Homo sapiens (Human), UniProt Q16816); conditions: read-out: % control
Experimental: as §1, §2, §3

LIMK2 = LIMK2 (Homo sapiens (Human), UniProt P53671); conditions: read-out: % control
Experimental: as §1, §2, §3

VPS34 = VPS34 (Homo sapiens (Human), UniProt Q8NEB9); conditions: read-out: % control
Experimental: as §1, §2, §3

PIK3CA(Q546K) = PIK3CA(Q546K) (Homo sapiens (Human), UniProt P42336, Q546K); conditions: read-out: % control
Experimental: as §1, §2, §3

FLT4 = FLT4 (Homo sapiens (Human), UniProt P35916); conditions: read-out: % control
Experimental: as §1, §2, §3

[2] = target: ABL1(F317I)-nonphosphorylated (Homo sapiens (Human), UniProt P00519, F317I); conditions: read-out: % control
Experimental: as §1, §2, §3

ALK(L1196M) = ALK(L1196M) (Homo sapiens (Human), UniProt Q9UM73, L1196M); conditions: read-out: % control
Experimental: as §1, §2, §3

BLK = BLK (Homo sapiens (Human), UniProt P51451); conditions: read-out: % control
Experimental: as §1, §2, §3

HPK1 = HPK1 (Homo sapiens (Human), UniProt Q92918); conditions: read-out: % control
Experimental: as §1, §2, §3

ERK1 = ERK1 (Homo sapiens (Human), UniProt P27361); conditions: read-out: % control
Experimental: as §1, §2, §3

GAK = GAK (Homo sapiens (Human), UniProt O14976); conditions: read-out: % control
Experimental: as §1, §2, §3

PLK1 = PLK1 (Homo sapiens (Human), UniProt P53350); conditions: read-out: % control
Experimental: as §1, §2, §3

MKK7 = MKK7 (Homo sapiens (Human), UniProt O14733); conditions: read-out: % control
Experimental: as §1, §2, §3

MAP4K3 = MAP4K3 (Homo sapiens (Human), UniProt Q8IVH8); conditions: read-out: % control
Experimental: as §1, §2, §3

NEK11 = NEK11 (Homo sapiens (Human), UniProt Q8NG66); conditions: read-out: % control
Experimental: as §1, §2, §3

[3] = target: TYK2(JH1domain-catalytic) (Homo sapiens (Human), UniProt P29597); conditions: read-out: % control
Experimental: as §1, §2, §3

JNK2 = JNK2 (Homo sapiens (Human), UniProt P45984); conditions: read-out: % control
Experimental: as §1, §2, §3

EGFR(G719S), sequence (P00533 25-1210 G719S): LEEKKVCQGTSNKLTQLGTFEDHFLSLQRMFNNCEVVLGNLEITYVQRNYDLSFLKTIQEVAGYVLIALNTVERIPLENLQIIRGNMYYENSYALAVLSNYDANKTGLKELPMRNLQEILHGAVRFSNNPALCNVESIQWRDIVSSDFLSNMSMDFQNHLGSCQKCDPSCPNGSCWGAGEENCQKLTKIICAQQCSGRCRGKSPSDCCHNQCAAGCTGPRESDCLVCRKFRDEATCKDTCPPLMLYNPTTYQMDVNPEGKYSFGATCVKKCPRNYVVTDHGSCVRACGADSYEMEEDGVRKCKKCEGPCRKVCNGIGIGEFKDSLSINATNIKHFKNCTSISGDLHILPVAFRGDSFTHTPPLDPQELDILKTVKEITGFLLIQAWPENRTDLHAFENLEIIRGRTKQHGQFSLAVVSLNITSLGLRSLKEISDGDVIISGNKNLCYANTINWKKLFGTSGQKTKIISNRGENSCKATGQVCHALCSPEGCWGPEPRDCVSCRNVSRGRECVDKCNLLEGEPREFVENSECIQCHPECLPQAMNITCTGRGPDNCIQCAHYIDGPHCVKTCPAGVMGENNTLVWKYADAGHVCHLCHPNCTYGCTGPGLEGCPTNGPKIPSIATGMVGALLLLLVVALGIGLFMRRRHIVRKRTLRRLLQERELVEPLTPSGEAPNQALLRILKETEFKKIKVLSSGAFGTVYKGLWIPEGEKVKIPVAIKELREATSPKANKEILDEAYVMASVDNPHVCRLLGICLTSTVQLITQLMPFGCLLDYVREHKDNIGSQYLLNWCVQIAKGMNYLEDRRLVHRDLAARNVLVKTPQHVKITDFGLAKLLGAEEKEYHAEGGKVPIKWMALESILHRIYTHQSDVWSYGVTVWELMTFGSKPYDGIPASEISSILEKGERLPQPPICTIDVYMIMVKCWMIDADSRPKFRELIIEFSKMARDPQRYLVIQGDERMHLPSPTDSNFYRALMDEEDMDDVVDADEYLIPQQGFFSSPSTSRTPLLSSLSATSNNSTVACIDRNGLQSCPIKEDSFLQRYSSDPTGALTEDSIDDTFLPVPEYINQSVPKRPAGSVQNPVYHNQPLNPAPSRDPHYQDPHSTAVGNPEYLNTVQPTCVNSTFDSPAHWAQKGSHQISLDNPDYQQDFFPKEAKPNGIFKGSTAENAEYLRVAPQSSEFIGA
EGFR(E746-A750del), sequence (P00533 other isoform, or with tags, fused parts or gaps del E746-A750): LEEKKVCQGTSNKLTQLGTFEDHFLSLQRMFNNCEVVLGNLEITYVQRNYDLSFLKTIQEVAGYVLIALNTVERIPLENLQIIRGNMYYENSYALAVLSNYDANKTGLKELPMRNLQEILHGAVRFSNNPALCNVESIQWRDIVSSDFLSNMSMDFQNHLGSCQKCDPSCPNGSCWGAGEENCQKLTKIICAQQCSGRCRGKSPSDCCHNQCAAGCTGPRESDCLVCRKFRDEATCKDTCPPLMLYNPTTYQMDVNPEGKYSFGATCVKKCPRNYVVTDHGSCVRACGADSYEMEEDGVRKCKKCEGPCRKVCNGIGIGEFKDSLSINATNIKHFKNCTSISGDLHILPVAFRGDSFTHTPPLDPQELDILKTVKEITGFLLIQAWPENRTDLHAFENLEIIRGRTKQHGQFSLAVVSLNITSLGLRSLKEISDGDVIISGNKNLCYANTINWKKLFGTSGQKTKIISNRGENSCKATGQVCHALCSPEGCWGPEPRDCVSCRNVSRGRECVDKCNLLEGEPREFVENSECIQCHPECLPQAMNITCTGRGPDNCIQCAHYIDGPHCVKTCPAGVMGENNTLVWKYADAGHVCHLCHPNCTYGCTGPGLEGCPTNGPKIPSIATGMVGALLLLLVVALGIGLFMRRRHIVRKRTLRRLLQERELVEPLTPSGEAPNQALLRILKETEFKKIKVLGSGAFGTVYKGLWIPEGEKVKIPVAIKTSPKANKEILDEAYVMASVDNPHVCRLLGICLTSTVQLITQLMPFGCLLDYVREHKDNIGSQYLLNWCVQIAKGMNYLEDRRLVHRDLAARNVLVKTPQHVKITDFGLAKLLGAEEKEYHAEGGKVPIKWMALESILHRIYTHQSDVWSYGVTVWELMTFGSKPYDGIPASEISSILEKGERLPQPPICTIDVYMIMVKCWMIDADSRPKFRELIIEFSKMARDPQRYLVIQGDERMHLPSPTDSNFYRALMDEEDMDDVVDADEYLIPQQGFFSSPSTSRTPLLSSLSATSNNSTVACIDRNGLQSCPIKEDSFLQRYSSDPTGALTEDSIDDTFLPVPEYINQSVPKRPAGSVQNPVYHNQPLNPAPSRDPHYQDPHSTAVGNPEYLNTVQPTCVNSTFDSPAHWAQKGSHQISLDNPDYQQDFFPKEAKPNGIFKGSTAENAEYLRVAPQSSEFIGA
PCTK2, sequence (Q00537 whole entry): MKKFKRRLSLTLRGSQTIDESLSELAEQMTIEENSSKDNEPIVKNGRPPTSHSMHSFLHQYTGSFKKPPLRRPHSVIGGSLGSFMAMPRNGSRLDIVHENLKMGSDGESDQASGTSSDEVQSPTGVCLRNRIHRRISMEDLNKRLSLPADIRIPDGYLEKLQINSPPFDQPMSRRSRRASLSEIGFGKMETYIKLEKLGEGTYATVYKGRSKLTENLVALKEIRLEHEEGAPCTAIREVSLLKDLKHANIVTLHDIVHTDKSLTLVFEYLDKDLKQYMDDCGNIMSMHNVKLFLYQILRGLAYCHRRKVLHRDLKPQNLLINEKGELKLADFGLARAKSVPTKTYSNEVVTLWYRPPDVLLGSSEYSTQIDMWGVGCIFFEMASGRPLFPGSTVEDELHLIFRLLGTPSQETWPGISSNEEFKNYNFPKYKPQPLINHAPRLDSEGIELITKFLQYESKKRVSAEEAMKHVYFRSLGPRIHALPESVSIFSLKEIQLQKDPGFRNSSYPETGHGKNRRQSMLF
MERTK, sequence (Q12866 21-999): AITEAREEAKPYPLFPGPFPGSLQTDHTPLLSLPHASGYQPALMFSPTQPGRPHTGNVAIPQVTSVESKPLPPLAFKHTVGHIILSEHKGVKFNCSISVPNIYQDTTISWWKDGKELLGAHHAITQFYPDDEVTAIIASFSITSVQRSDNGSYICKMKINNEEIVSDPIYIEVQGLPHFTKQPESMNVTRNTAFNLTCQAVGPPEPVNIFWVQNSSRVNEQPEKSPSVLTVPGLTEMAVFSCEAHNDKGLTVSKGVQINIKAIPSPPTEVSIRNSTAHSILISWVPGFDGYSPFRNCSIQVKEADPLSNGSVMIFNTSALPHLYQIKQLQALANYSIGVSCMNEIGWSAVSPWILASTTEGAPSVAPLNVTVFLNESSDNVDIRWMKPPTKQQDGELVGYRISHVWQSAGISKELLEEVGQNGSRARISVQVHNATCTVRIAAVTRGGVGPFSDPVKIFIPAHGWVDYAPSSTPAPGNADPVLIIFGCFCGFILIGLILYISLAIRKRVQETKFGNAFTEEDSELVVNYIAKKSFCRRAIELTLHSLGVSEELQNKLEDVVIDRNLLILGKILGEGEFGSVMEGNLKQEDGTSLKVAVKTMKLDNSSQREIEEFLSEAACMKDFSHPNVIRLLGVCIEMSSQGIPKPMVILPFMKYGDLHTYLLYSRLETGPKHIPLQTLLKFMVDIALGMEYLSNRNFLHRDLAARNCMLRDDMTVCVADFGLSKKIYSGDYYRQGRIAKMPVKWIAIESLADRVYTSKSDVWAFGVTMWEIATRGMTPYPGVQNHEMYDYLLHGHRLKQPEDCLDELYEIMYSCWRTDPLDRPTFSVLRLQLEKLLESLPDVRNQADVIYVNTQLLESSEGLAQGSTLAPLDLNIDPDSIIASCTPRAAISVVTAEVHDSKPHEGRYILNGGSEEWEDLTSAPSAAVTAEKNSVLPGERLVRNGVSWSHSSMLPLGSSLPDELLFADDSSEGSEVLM
NEK11, sequence (Q8NG66 whole entry): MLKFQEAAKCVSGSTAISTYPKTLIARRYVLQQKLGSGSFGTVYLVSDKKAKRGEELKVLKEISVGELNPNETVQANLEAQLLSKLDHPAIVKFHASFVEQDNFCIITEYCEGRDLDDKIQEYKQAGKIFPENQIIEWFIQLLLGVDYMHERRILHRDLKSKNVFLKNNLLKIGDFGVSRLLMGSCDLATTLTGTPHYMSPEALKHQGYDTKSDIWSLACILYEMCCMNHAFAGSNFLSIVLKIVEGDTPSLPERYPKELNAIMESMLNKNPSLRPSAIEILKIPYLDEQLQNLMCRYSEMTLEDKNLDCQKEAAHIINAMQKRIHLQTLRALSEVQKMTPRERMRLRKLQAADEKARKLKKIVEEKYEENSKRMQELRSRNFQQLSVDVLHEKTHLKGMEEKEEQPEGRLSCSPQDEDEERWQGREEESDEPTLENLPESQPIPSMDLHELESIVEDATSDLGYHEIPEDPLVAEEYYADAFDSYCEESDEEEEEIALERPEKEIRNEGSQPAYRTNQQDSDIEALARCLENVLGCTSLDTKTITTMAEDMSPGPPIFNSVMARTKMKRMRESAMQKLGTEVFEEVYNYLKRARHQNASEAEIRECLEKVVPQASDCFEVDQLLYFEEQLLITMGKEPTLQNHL
MST2, sequence (Q13188 whole entry): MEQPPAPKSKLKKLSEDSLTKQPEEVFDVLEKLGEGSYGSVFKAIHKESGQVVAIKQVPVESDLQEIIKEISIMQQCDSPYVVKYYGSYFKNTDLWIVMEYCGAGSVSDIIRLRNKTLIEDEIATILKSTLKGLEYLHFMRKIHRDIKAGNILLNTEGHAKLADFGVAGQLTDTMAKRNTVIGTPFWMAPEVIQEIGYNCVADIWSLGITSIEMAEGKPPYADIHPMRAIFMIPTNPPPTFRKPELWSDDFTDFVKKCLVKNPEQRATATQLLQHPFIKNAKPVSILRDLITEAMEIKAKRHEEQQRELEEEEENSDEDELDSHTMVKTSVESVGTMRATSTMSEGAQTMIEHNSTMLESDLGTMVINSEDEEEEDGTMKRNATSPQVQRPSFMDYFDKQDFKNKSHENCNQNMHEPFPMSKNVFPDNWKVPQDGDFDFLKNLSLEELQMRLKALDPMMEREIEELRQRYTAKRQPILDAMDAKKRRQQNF

| SMILES | remaining binding at 1 µM (GRK7) [%] | remaining binding at 1 µM (EGFR) [%] | remaining binding at 1 µM (BMPR1A) [%] | remaining binding at 1 µM (FGFR1) [%] | remaining binding at 1 µM (EGFR(G719S)) [%] | remaining binding at 1 µM (EGFR(E746-A750del)) [%] | remaining binding at 1 µM (EPHA5) [%] | remaining binding at 1 µM (PLK3) [%] | remaining binding at 1 µM (DDR2) [%] | remaining binding at 1 µM (PRKCQ) [%] | remaining binding at 1 µM [1] [%] | % control (FLT3(ITD)) [%] | remaining binding at 1 µM (EPHB3) [%] | remaining binding at 1 µM (RET(M918T)) [%] | remaining binding at 1 µM (IKK-epsilon) [%] | remaining binding at 1 µM (PLK2) [%] | remaining binding at 1 µM (p38-alpha) [%] | remaining binding at 1 µM (GRK3) [%] | remaining binding at 1 µM (MERTK) [%] | remaining binding at 1 µM (PDPK1) [%] | further results |
| --- | --- | --- | --- | --- | --- | --- | --- | --- | --- | --- | --- | --- | --- | --- | --- | --- | --- | --- | --- | --- | --- |
| CCNc1cc(Nc2ccc(C(=O)N3CCC(N4CCOCC4)CC3)cc2OC)nc2[nH]cc(C(F)(F)F)c12 [Example 57, (4-((4-(ethylamino)-3-(trifluoromethyl)-1H-pyrrolo[2,3-b]pyridin-6-yl)amino)-3-methoxyphenyl) (4-morpholinopiperidin-1-yl)methanone] | 84 | 59 | 80 | 87 | 92 | 98 | 85 | 98 | 91 | 96 | 96 | 79 | 85 | 100 | 96 | 90 | 83 | 100 | 91 | 86 | remaining binding at 1 µM (MST2): 100%; remaining binding at 1 µM (PCTK2): 98%; remaining binding at 1 µM (PHKG1): 26%; remaining binding at 1 µM (LIMK2): 99%; remaining binding at 1 µM (VPS34): 79%; remaining binding at 1 µM (PIK3CA(Q546K)): 100%; remaining binding at 1 µM (FLT4): 99%; remaining binding at 1 µM [2]: 96%; remaining binding at 1 µM (ALK(L1196M)): 14%; remaining binding at 1 µM (BLK): 73%; remaining binding at 1 µM (HPK1): 91%; remaining binding at 1 µM (ERK1): 98%; remaining binding at 1 µM (GAK): 41%; remaining binding at 1 µM (PLK1): 100%; remaining binding at 1 µM (MKK7): 93%; remaining binding at 1 µM (MAP4K3): 91%; remaining binding at 1 µM (NEK11): 100%; remaining binding at 1 µM [3]: 100%; remaining binding at 1 µM (JNK2): 52% |
| CCNc1cc(Nc2ccc(C(=O)N3CCC(N4CCOCC4)CC3)cc2OC)nc2[nH]cc(C#N)c12 [Example 18, 4-(ethylamino)-6-((2-methoxy-4-(4-morpholinopiperidine-1-carbonyl)phenyl)amino)-1H-pyrrolo[2,3-b]pyridine-3-carbonitrile] | 96 | 100 | 74 | 87 | 80 | 83 | 99 | 79 | 98 | 94 | 78 | 92 | 93 | 99 | 96 | 81 | 100 | 58 | 100 | 99 | remaining binding at 1 µM (MST2): 95%; remaining binding at 1 µM (PCTK2): 100%; remaining binding at 1 µM (PHKG1): 16%; remaining binding at 1 µM (LIMK2): 90%; remaining binding at 1 µM (VPS34): 96%; remaining binding at 1 µM (PIK3CA(Q546K)): 100%; remaining binding at 1 µM (FLT4): 100%; remaining binding at 1 µM [2]: 89%; remaining binding at 1 µM (ALK(L1196M)): 13%; remaining binding at 1 µM (BLK): 99%; remaining binding at 1 µM (HPK1): 76%; remaining binding at 1 µM (ERK1): 100%; remaining binding at 1 µM (GAK): 15%; remaining binding at 1 µM (PLK1): 41%; remaining binding at 1 µM (MKK7): 89%; remaining binding at 1 µM (MAP4K3): 93%; remaining binding at 1 µM (NEK11): 100%; remaining binding at 1 µM [3]: 59%; remaining binding at 1 µM (JNK2): 0.1% |
